# Experimental data as given in article PMC11044151, “Development of Half-Sandwich Ru, Os, Rh, and Ir Complexes Bearing the Pyridine-2-ylmethanimine Bidentate Ligand Derived from 7-Chloroquinazolin-4(3H)-one with Enhanced Antiproliferative Activity” (ACS Omega, 2024).
# How the values were obtained:
# SW620E = assay: Neutral red uptake antiproliferative assay, MDR line SW620E; assay type: cell-based, human; conditions: for IC50: exposure time 72 h, n = 3, ABCC1- and ABCB1-overexpressing MDR line; for activity factor IC50(1)/IC50(3a–4d), SW620E: vs corresponding amine (R)-1 or (S)-1, 72 h
# Text: (§1) Next, we evaluated the cytotoxicity of the synthesized complexes toward the panel of six multidrug-resistant (MDR) cell lines derived from SW620 and characterized by the overexpression of various ABC proteins, namely, ABCG2 (SW620C and SW620Mito), ABCC1 (SW620M and SW620E), and ABCB1 (SW620D, SW620E, and SW620V) (Table 3, Figures S29 and S32). […] The activity of the complexes derived from the ligand (S)-2 is also considerably higher than that of the compounds containing the ligand (R)-2. The cytotoxicity of both rhodium 4c and iridium 4d complexes is higher than that of amine (S)-1. In the case of 4c, the increase in cytotoxicity is low, with the highest value of 3.7-fold for the SW620Mito line. […] Compound 4d also exerts a 2.1- and 2.6-fold higher cytotoxicity than […] against the SW620C and SW620D lines.
# (§2) For this purpose, neutral red uptake assay was performed. […] The results were presented as a percentage of control.
# HCT116 = assay: cells; conditions: for IC50: read-out: IC50 HCT116, exposure time 72 h, n = 3, 95% CI given; for activity factor IC50(1)/IC50(3a–4d), HCT116: vs corresponding amine (R)-1 or (S)-1, 72 h
# Text: To assess the impact of conjugating half-sandwich complexes with amines 1 via an imine-pyridine ligand on biological activity, we examined the antiproliferative potential of (R)- and (S)-1 and organometallic conjugates 3a–d and 4a–d in selected human cancer cell lines: alveolar basal epithelial cell adenocarcinoma (A549), colorectal adenocarcinomas (Colo205 and SW620), colorectal carcinoma (HCT116), hepatocellular carcinoma (HepG2), and breast adenocarcinoma (MCF7). The choice of cell lines was dictated by results of previously published clinical trials on ispinesib.[49],[50]
# For this purpose, neutral red uptake assay was performed. 10^4 of cells were seeded per well of a 96-well plate and left overnight to allow cells to attach to the surface. Then, the cells were exposed to a desired concentration of tested compounds. Stock solutions were prepared in DMSO and were used immediately after preparation. The final concentration of DMSO was constant and nontoxic (0.1% v/v). After 70 h of culture, neutral red was added to the final concentration of 1 mM. After 2 h of incubation with the dye, the medium was aspirated and cells were washed with ice-cold PBS. The dye was released using 100 μL of the solubilizer (1% acetic acid in 50% ethanol) on an orbital shaker (10 min). The absorbance at 540 nm was measured using an EnVision multilabel plate reader (PerkinElmer). […] The IC90 and IC50 parameters were calculated using GraphPad Prism v9 software using the five-parameter nonlinear logistic regression model.
# [1] = Stability study in the presence of L-cysteine (UV-vis, HPLC-MS); assay type: physicochemical; conditions: 20 μM complex, 0.2 mM L-cysteine in water, 0.5 vol % DMSO, followed over 2 h
# Text: For biological studies, compounds are commonly administered as dimethyl sulfoxide (DMSO) solution to cells cultured in a specific medium such as Dulbecco’s modified Eagle’s medium (DMEM). DMEM consists of numerous organic compounds which may act as ligands for organometallics. Therefore, it is important to know how the compounds behave in such conditions. The two most prominent components of DMEM which may coordinate to half-sandwich complexes are L-cysteine and L-histidine. Both of those amino acids are present in DMEM at 0.2 mM concentration, so we studied how the complexes interact with them using UV–vis spectroscopy and HPLC-MS analysis. The DMSO solutions of complexes were added to the aqueous solution of L-cysteine or L-histidine to achieve a complex concentration of 20 μM while keeping the DMSO concentration at 0.5 vol %. […] HPLC-MS analysis confirmed the formation of an additional peak at τ = 0.95 min with m/z 714 assigned to [M-Cl-PF6 + HCOOH]^+; additionally, the intensity of peaks corresponding to 3c is lower (Figure S26). […] The intensity of absorbance peaks at λ = 287 and λ = 372 nm in the presence of cysteine is decreasing, while the intensity of peaks at λ = 304 and λ = 318 nm is almost intact.
# The stability of 3a–d was studied in the presence of L-cysteine or L-histidine. 3a–d were dissolved in DMSO and added to 0.2 mM aqueous solution of L-cysteine or L-histidine to achieve the complex concentration of 20 μM while keeping the DMSO concentration at 0.5 vol %. UV–vis spectra were recorded over 2 h with 10 min intervals.
# SW620D = assay: Neutral red uptake antiproliferative assay, MDR line SW620D; assay type: cell-based, human; conditions: for IC50: exposure time 72 h, n = 3, ABCB1-overexpressing MDR line; for activity factor IC50(1)/IC50(3a–4d), SW620D: vs corresponding amine (R)-1 or (S)-1, 72 h
# Text: as §1, §2
# SW620 cells = assay: Cell cycle distribution by flow cytometry, SW620; assay type: cell-based, human; conditions: concentration equal to IC75 of (S)-1 / (R)-1, mean ± SEM, n = 3; for Cell cycle fraction G1, 24 h / Cell cycle fraction G2/M, 24 h / Cell cycle fraction S, 24 h: SW620, 24 h; for Cell cycle fraction G1, 48 h / Cell cycle fraction G2/M, 48 h / Cell cycle fraction S, 48 h: SW620, 48 h
# Description: Ispinesib leads to the formation of monopolar mitotic spindles and a blockade of chromosome segregation in cancer cells. Using flow cytometry, we assessed the cell cycle distribution in the SW620 and SW620E cells exposed to the studied compounds for 24 and 48 h. […] Both complexes, 3c and 3d, decrease the percentage of cells in the G1/G0 phase and increase the percentage in the S and G2/M phases. […] Furthermore, prolonged exposure to the compounds increases the percentage of cells in the G2/M phase, with the most intensive effect observed for 3c and 3d.
# SW620 and SW620E cells lines (vulnerable and resistant variants, respectively) were seeded in 6-well plates at a density of 10^5 cells per well. […] After 24 h, the cells were trypsinized and fixed with ice-cold 70% v/v ethanol. The cells were stained with 75 μM propidium iodide with 50 Kunitz units of RNase A in PBS for 30 min at 37 °C. All samples were analyzed using a LSRII flow cytometer (Becton Dickinson) at a PE channel ([…]). Cell cycle phase distribution was determined using a built-in cell cycle module (Watson pragmatic algorithm) by FlowJo 7.6.1 software.
SMILES,IC50 (SW620E),"activity factor IC50(1)/IC50(3a–4d), SW620E (SW620E)",IC50 (HCT116),"activity factor IC50(1)/IC50(3a–4d), HCT116 (HCT116)",reaction with L-cysteine (stability) [1],IC50 (SW620D),"higher cytotoxicity than corresponding amine 1, SW620D (SW620D; rounded value)","activity factor IC50(1)/IC50(3a–4d), SW620D (SW620D)","Cell cycle fraction G1, 24 h (SW620 cells)","Cell cycle fraction G2/M, 24 h (SW620 cells)","Cell cycle fraction S, 24 h (SW620 cells)","Cell cycle fraction G1, 48 h (SW620 cells)","Cell cycle fraction G2/M, 48 h (SW620 cells)","Cell cycle fraction S, 48 h (SW620 cells)"
"CC(C)[C@@H](N=Cc1ccccn1)c1nc2cc(Cl)ccc2c(=O)n1Cc1ccccc1.Cc1c(C)c(C)[c-](C)c1C.F[P-](F)(F)(F)(F)F.[Cl-].[Ir+3] [Compound 3d, [(Cp*)Ir((R)-2)Cl]PF6]",1020 nM,(0.819),476 nM,(0.727),reacts with both L-cysteine and L-histidine (Figure 6) in 40 min,0.644 µM,1.7 fold,(1.74),30.8 ± 0.8%,43.4 ± 1.5%,25.4 ± 0.8%,24.3 ± 1.2%,55.9 ± 1.1%,19.3 ± 0.4%
"CC(C)[C@@H](N=Cc1ccccn1)c1nc2cc(Cl)ccc2c(=O)n1Cc1ccccc1.Cc1ccc(C(C)C)cc1.F[P-](F)(F)(F)(F)F.[Cl-].[Os+2] [Compound 3b, [(cym)Os((R)-2)Cl]PF6]",3520 nM,(0.237),424 nM,(0.816),neither ruthenium 3a nor the osmium complex 3b reacts with those amino acids within 2 h,3.92 µM,,(0.286),51.4 ± 1.2%,35.3 ± 1.4%,12.5 ± 2.1%,41.4 ± 0.7%,45.0 ± 0.5%,12.7 ± 1.1%
"CC(C)[C@@H](N=Cc1ccccn1)c1nc2cc(Cl)ccc2c(=O)n1Cc1ccccc1.Cc1c(C)c(C)[c-](C)c1C.F[P-](F)(F)(F)(F)F.[Cl-].[Rh+3] [Compound 3c, [(Cp*)Rh((R)-2)Cl]PF6]",880 nM,(0.949),173 nM,(2.00),slowly reacts with L-cysteine,4.18 µM,,(0.268),33.9 ± 2.5%,40.9 ± 3.5%,24.2 ± 1.4%,23.1 ± 1.7%,54.5 ± 1.8%,20.8 ± 2.2%
"CC(C)[C@@H](N=Cc1ccccn1)c1nc2cc(Cl)ccc2c(=O)n1Cc1ccccc1.Cc1ccc(C(C)C)cc1.F[P-](F)(F)(F)(F)F.[Cl-].[Ru+2] [Compound 3a, [(cym)Ru((R)-2)Cl]PF6]",5520 nM,(0.151),2880 nM,(0.120),neither ruthenium 3a nor the osmium complex 3b reacts with those amino acids within 2 h,7.23 µM,,(0.155),51.9 ± 1.0%,32.5 ± 1.5%,14.9 ± 0.6%,44.8 ± 0.7%,40.2 ± 1.1%,14.3 ± 0.4%
